How the values were obtained:
SARS-COV-2 [1] = experiment: Human ACE2 transgenic COVID-19 mouse model (intranasal SARS-COV-2 infection); type: in vivo, mice; conditions: for Survival (%): Daily
SARS-COV-2 [2] = experiment: In vitro inhibition of SARS-COV-2 replication in Vero E6 cells (viral load by quantitative real-time RT-PCR); type: cell-based; conditions: for effect of removal of the single agent from the formulation on overall activity (FIG. 18): APHR Combination 1 minus one agent
SARS-COV-2 [3] = conditions: WHO Solidarity Trial; cited from earlier work
SARS-COV-2 [4] = type: in vivo; conditions: intention-to-treat population; 10 subjects per arm
SARS-COV-2 [5] = conditions: 5-day course, 476 patients, mild COVID-19; cited from earlier work
[6] = 200 mg/kg, Pretreatment to Day 7

## O=c1c(O)c(-c2ccc(O)c(O)c2)oc2cc(O)cc(O)c12 [Quercitin]
SARS-COV-2 [1]; 66 mg/kg, Pretreatment to Day 7
  Survival (%): 80%
SARS-COV-2 [1]; [6]
  Survival (%): 100%

## CCC(CC)COC(=O)[C@H](C)N[P@](=O)(OC[C@H]1O[C@@](C#N)(c2ccc3c(N)ncnn23)[C@H](O)[C@@H]1O)Oc1ccccc1 [Remdesivir]
SARS-COV-2 [1]; 50 mg/kg, Day 1 post-treatment to 7
  Survival (%): 100%
SARS-COV-2 [1]; [6]
  Survival (%): 100%

## CC(C)=CCC[C@](C)(O)C1CC=C(C)CC1 (stereo partly shown) [bisabolol]
SARS-COV-2 [2]
  effect of removal of the single agent from the formulation on overall activity (FIG. 18): reduced overall activity

## CCN(CCO)CCCC(C)Nc1ccnc2cc(Cl)ccc12 (stereo not shown) [hydroxychloroquine]
SARS-COV-2 [3]
  effect on hospitalized patients with Covid-19: little or no effect

## Cc1cccc(C)c1OCC(=O)N[C@@H](Cc1ccccc1)[C@@H](O)C[C@H](Cc1ccccc1)NC(=O)[C@H](C(C)C)N1CCCNC1=O [lopinavir]
SARS-COV-2 [3]
  effect on hospitalized patients with Covid-19: little or no effect

## C[C@@H]1O[C@@H](OC[C@H]2O[C@@H](Oc3c(-c4ccc(O)c(O)c4)oc4cc(O)cc(O)c4c3=O)[C@H](O)[C@@H](O)[C@@H]2O)[C@H](O)[C@H](O)[C@H]1O [rutin]
SARS-COV-2 [2]; Severe acute respiratory syndrome coronavirus 2, Vero C1008, 1 μM final concentration, 1:1 molar ratio of cyclodextrin to rutin, read-out: inhibition of SARS-COV-2 replication over untreated (FIG. 16)
  inhibition at 1 µM: ~25%

## O=C(OC[C@H]1O[C@@H](OC(=O)c2cc(O)c(O)c(OC(=O)c3cc(O)c(O)c(O)c3)c2)[C@H](OC(=O)c2cc(O)c(O)c(OC(=O)c3cc(O)c(O)c(O)c3)c2)[C@@H](OC(=O)c2cc(O)c(O)c(OC(=O)c3cc(O)c(O)c(O)c3)c2)[C@@H]1OC(=O)c1cc(O)c(O)c(OC(=O)c2cc(O)c(O)c(O)c2)c1)c1cc(O)c(O)c(OC(=O)c2cc(O)c(O)c(O)c2)c1 [tannic acid]
SARS-COV-2 [2]
  effect of removal of the single agent from the formulation on overall activity (FIG. 18): reduced overall activity

## ivermectin
SARS-COV-2 [1]; β-cyclodextrin Rutin daily from Day 2 post infection, Ivermectin once on Day 2 post infection
  morbidity, body weight (FIG. 8): decreased morbidity
SARS-COV-2 [4]
  Time to defervescence (days): 4 (3 to 6) days
  Time to resolution of COVID symptoms (days): 4 (3 to 6) days
SARS-COV-2 [5]
  duration of symptoms compared with placebo: not significantly different

— patent publication US20240350659A1, “COMPOSITIONS AND METHODS FOR BIMODAL ANTI-VIRAL COMBINATION THERAPY” (priority 2021, published 2024)
